Results on two compounds are retold here after US12287326B2, “Fluorescent turn-on chemosensors for detection of aluminum ion and azide” (Morgan State University, priority 2019, dated 2025).

SMILES strings stand for the structures.

The experiment is described as follows: Fluorescence titration of sensors with Al^3+. To be noted: λex=510 nm, emission 585 nm. How it is done:
All reagents and solvents were purchased as analytical-grade and used without further purification unless otherwise stated. Stock solutions of metal ions were prepared from their nitrate and chloride salts and anion species from their tetrabutylammonium salts. Distilled deionized water was used throughout the experiments. ^1H-NMR and 13C-NMR spectra were recorded using an Avance 400 MHz spectrometer (BRUKER® Billerica, Karlsruhe, Germany) with tetramethylsilane (TMS) as internal standard and deuterated chloroform (CDCl3) as solvent. NMR spectra were analyzed using MestReNova software (version 10, Mestrela Research, Feliciano Barrera-Bajo, Spain). The IR spectrum was obtained using FT-IR spectrometer (Shimadzu, IRAffinity-1S, Columbia, MD, USA). […] All UV-vis spectroscopy experiments were recorded using a Cary UV/vis spectrophotometer 5000 (VARIAN®, Walnut Creek, CA, USA). Fluorescence emission spectra experiments were measured using a Cary 60 series spectrometer (AGILENT® Walnut Creek, CA, USA), with excitation and emission slit widths of 5 nm and excitation wavelength at 510 nm. […]
All spectroscopic measurements were carried out in aqueous CH3CN medium at room temperature. […] Each fluorescence titration was repeated at least thrice until consistent values were obtained. […] The association constant (K) was calculated from absorbance studies by the linear Benesi-Hildebrand equation. […]

Take `CCN(CC)c1ccc2c(c1)Oc1cc(N(CC)CC)ccc1C21c2ccccc2C(=O)N1/N=C/c1c(OC)ccc2ccccc12` [L1]: the “detection limit for Al^3+ ions” value came to 32 µM.
For `CCN(CC)c1ccc2c(c1)Oc1cc(N(CC)CC)ccc1C21c2ccccc2C(=O)N1/N=C/c1cc(Br)cc(OC)c1O` [L2], the “detection limit for Al^3+ ions” value was 47 µM.
